Test system: Klebsiella isolates
Assay: Antibiotic susceptibility of Klebsiella clinical isolates per 7-SNP clonotype (Lookup Table 1; disk diffusion)
Assay type: cell-based, Klebsiella spp.
Procedure: In further embodiments, the Lookup Table is Lookup Table 1. The information contained in Lookup Table 1 below was obtained from urine specimens from patients with Klebsiella infections from several clinics within different regions of the United States. CT=clonotypes determined using a 7-SNP combination: phoE54; rpoB130; infB279; mdh315; phoE336; phoE354; and mdh429.
Next, antibiotic resistance was determined for all 387 Klebsiella isolates in the discovery set. Antibiotic testing was carried out according to the standard disk diffusion method as described in the Clinical and Laboratory Standards Institute (M100 Performance Standards for Antimicrobial Susceptibility Testing, 27th Edition, 2017). […] Since almost all Klebsiella isolates are known to be resistant to AMP and sensitive to IMI, TET is not used for treatment of urinary tract infections, and ESBL production is partially reflected in resistance to CTR, these antibiotics were not included for further analysis.
To aid in clinical decision-making and to translate clonotype information to treatment selection, Lookup Table 1 was generated. […] The information contained in Lookup Table 1 was obtained from urine specimens from patients with Klebsiella infections from several clinics within different regions of the United States. Indications of allowance or non-recommendation were determined based on a 20% resistance threshold to the indicated antibiotic; i.e., the antibiotic is recommended when more than 80% of the tested isolates within the indicated clonotype were susceptible to the indicated antibiotic, and was cautioned against when less than 80% of the isolates were susceptible to the antibiotic.

## C[C@@H](O)[C@H]1C(=O)N2C(C(=O)O)=C(SCCN=CN)C[C@H]12 [IMI, imipenem]
CT 000
  susceptibility, %: 100%
CT 001
  susceptibility, %: 100%
CT 010
  susceptibility, %: 100%
CT 011
  susceptibility, %: 100%
CT 031
  susceptibility, %: 67%
CT 040
  susceptibility, %: 75%
CT 050
  susceptibility, %: 100%
CT 051
  susceptibility, %: 100%
CT 071
  susceptibility, %: 100%
CT 100
  susceptibility, %: 100%
CT 110
  susceptibility, %: 100%
CT 111
  susceptibility, %: 100%
CT 130
  susceptibility, %: 100%
CT 131
  susceptibility, %: 98%
CT 141
  susceptibility, %: 100%
CT 150
  susceptibility, %: 99%
CT 151
  susceptibility, %: 100%
CT 160
  susceptibility, %: 100%
CT 170
  susceptibility, %: 96%
CT 171
  susceptibility, %: 97%
CT 200
  susceptibility, %: 100%
CT 201
  susceptibility, %: 100%
CT 210
  susceptibility, %: 100%
CT 211
  susceptibility, %: 100%
CT 230
  susceptibility, %: 100%
CT 231
  susceptibility, %: 100%
CT 240
  susceptibility, %: 100%
CT 241
  susceptibility, %: 100%
CT 250
  susceptibility, %: 100%
CT 251
  susceptibility, %: 100%
CT 271
  susceptibility, %: 100%
CT 300
  susceptibility, %: 100%
CT 301
  susceptibility, %: 100%
CT 310
  susceptibility, %: 100%
CT 311
  susceptibility, %: 100%
CT 330
  susceptibility, %: 100%
CT 331
  susceptibility, %: 100%
CT 350
  susceptibility, %: 100%
CT 351
  susceptibility, %: 100%
CT 370
  susceptibility, %: 100%
CT 371
  susceptibility, %: 100%
CT 411
  susceptibility, %: 100%
CT 450
  susceptibility, %: 100%
CT 451
  susceptibility, %: 100%
CT 510
  susceptibility, %: 100%
CT 511
  susceptibility, %: 100%
CT 530
  susceptibility, %: 100%
CT 531
  susceptibility, %: 100%
CT 550
  susceptibility, %: 98%
CT 551
  susceptibility, %: 75%
CT 570
  susceptibility, %: 100%
CT 571
  susceptibility, %: 100%
CT 611
  susceptibility, %: 100%
CT 630
  susceptibility, %: 100%
CT 650
  susceptibility, %: 100%
CT 651
  susceptibility, %: 100%
CT 670
  susceptibility, %: 100%
CT 710
  susceptibility, %: 100%
CT 730
  susceptibility, %: 98%
CT 731
  susceptibility, %: 100%
CT 750
  susceptibility, %: 100%
CT 751
  susceptibility, %: 100%
CT 771
  susceptibility, %: 100%
CT Any Klebsiella spp.
  susceptibility, %: 99%

## O=C1CN(/N=C/c2ccc([N+](=O)[O-])o2)C(=O)N1 [NIT, nitrofurantoin]
CT 000
  susceptibility, %: 91%
CT 001
  susceptibility, %: 0%
CT 010
  susceptibility, %: 33%
CT 011
  susceptibility, %: 82%
CT 031
  susceptibility, %: 100%
CT 040
  susceptibility, %: 50%
CT 050
  susceptibility, %: 33%
CT 051
  susceptibility, %: 56%
CT 071
  susceptibility, %: 60%
CT 100
  susceptibility, %: 86%
CT 110
  susceptibility, %: 0%
CT 111
  susceptibility, %: 30%
CT 130
  susceptibility, %: 70%
CT 131
  susceptibility, %: 56%
CT 141
  susceptibility, %: 0%
CT 150
  susceptibility, %: 42%
CT 151
  susceptibility, %: 41%
CT 160
  susceptibility, %: 0%
CT 170
  susceptibility, %: 39%
CT 171
  susceptibility, %: 28%
CT 200
  susceptibility, %: 97%
CT 201
  susceptibility, %: 66%
CT 210
  susceptibility, %: 57%
CT 211
  susceptibility, %: 81%
CT 230
  susceptibility, %: 0%
CT 231
  susceptibility, %: 50%
CT 240
  susceptibility, %: 100%
CT 241
  susceptibility, %: 0%
CT 250
  susceptibility, %: 50%
CT 251
  susceptibility, %: 57%
CT 271
  susceptibility, %: 50%
CT 300
  susceptibility, %: 0%
CT 301
  susceptibility, %: 64%
CT 310
  susceptibility, %: 47%
CT 311
  susceptibility, %: 60%
CT 330
  susceptibility, %: 15%
CT 331
  susceptibility, %: 53%
CT 350
  susceptibility, %: 54%
CT 351
  susceptibility, %: 59%
CT 370
  susceptibility, %: 25%
CT 371
  susceptibility, %: 25%
CT 411
  susceptibility, %: 50%
CT 450
  susceptibility, %: 50%
CT 451
  susceptibility, %: 67%
CT 510
  susceptibility, %: 0%
CT 511
  susceptibility, %: 100%
CT 530
  susceptibility, %: 31%
CT 531
  susceptibility, %: 33%
CT 550
  susceptibility, %: 19%
CT 551
  susceptibility, %: 18%
CT 570
  susceptibility, %: 25%
CT 571
  susceptibility, %: 50%
CT 611
  susceptibility, %: 50%
CT 630
  susceptibility, %: 0%
CT 650
  susceptibility, %: 63%
CT 651
  susceptibility, %: 35%
CT 670
  susceptibility, %: 0%
CT 710
  susceptibility, %: 67%
CT 730
  susceptibility, %: 36%
CT 731
  susceptibility, %: 67%
CT 750
  susceptibility, %: 50%
CT 751
  susceptibility, %: 33%
CT 771
  susceptibility, %: 57%
CT Any Klebsiella spp.
  susceptibility, %: 59%

## trimethoprim/sulfamethoxazole [TS]
CT 000
  susceptibility, %: 87%
CT 001
  susceptibility, %: 100%
CT 010
  susceptibility, %: 100%
CT 011
  susceptibility, %: 91%
CT 031
  susceptibility, %: 67%
CT 040
  susceptibility, %: 25%
CT 050
  susceptibility, %: 86%
CT 051
  susceptibility, %: 85%
CT 071
  susceptibility, %: 60%
CT 100
  susceptibility, %: 100%
CT 110
  susceptibility, %: 100%
CT 111
  susceptibility, %: 90%
CT 130
  susceptibility, %: 92%
CT 131
  susceptibility, %: 72%
CT 141
  susceptibility, %: 100%
CT 150
  susceptibility, %: 73%
CT 151
  susceptibility, %: 65%
CT 160
  susceptibility, %: 0%
CT 170
  susceptibility, %: 83%
CT 171
  susceptibility, %: 92%
CT 200
  susceptibility, %: 77%
CT 201
  susceptibility, %: 79%
CT 210
  susceptibility, %: 95%
CT 211
  susceptibility, %: 91%
CT 230
  susceptibility, %: 100%
CT 231
  susceptibility, %: 100%
CT 240
  susceptibility, %: 100%
CT 241
  susceptibility, %: 100%
CT 250
  susceptibility, %: 80%
CT 251
  susceptibility, %: 80%
CT 271
  susceptibility, %: 75%
CT 300
  susceptibility, %: 0%
CT 301
  susceptibility, %: 76%
CT 310
  susceptibility, %: 100%
CT 311
  susceptibility, %: 65%
CT 330
  susceptibility, %: 55%
CT 331
  susceptibility, %: 76%
CT 350
  susceptibility, %: 74%
CT 351
  susceptibility, %: 84%
CT 370
  susceptibility, %: 75%
CT 371
  susceptibility, %: 100%
CT 411
  susceptibility, %: 100%
CT 450
  susceptibility, %: 83%
CT 451
  susceptibility, %: 100%
CT 510
  susceptibility, %: 100%
CT 511
  susceptibility, %: 0%
CT 530
  susceptibility, %: 45%
CT 531
  susceptibility, %: 67%
CT 550
  susceptibility, %: 79%
CT 551
  susceptibility, %: 52%
CT 570
  susceptibility, %: 75%
CT 571
  susceptibility, %: 100%
CT 611
  susceptibility, %: 100%
CT 630
  susceptibility, %: 100%
CT 650
  susceptibility, %: 83%
CT 651
  susceptibility, %: 85%
CT 670
  susceptibility, %: 100%
CT 710
  susceptibility, %: 67%
CT 730
  susceptibility, %: 45%
CT 731
  susceptibility, %: 82%
CT 750
  susceptibility, %: 65%
CT 751
  susceptibility, %: 100%
CT 771
  susceptibility, %: 86%
CT Any Klebsiella spp.
  susceptibility, %: 80%

— patent US20210214758A1, “METHODS AND TOOLS FOR DETERMINING CLONAL RELATEDNESS AND PREDICTING CLONAL TRAITS” (priority 2018, published 2021)
